Laboratory results reported in patent publication US20140243391A1, “PHOSPHOLIPID-DETERGENT CONJUGATES AND USES THEREOF” (CENTRE NATIONAL DE LA RECHERCHE SCIENTIFIQUE, priority 2011, published 2014).
Where “and” joins values, the source holds several entries; their conditions need not be identical. Equal values may be shown once. Read-outs that look alike come from different tables or passages of the source.

Columns and labels:
[1] = Light scattering: particle size and zeta potential of lipoplexes; type: physicochemical; conditions: pCMVLuc lipoplexes, 5% glucose, N/P 3, 25° C.
Method: The average particle size of the liposomes and lipoplexes was measured by photon correlation spectroscopy using a Zetasizer nanoZS apparatus (Malvern Instruments, Paris, France). All measurements were conducted at 25° C. Data were analyzed using the multimodal number distribution software supplied with the instrument. For the preparation of lipoplexes, lipids were freshly solubilized in ethanol (1.24 mM) and deposited (60 μL) at the bottom of a 1.5 mL eppendorf tube. Volatiles were removed under reduced pressure to obtain a dry film. Typically, 404 μL of 60 μM solution of pCMVLuc in 4.5% glucose was added to the lipid. After 30 seconds vortexing and 15 minutes standing at room temperature, the complexes were diluted in 4.5 glucose (1096 μL) for measurements. Value for each sample is the mean of triplicate determinations (±SD).

[2] = system: BHK-21 cells; test: pDNA (pCMVLuc) transfection in BHK-21 cells; type: cell-based, Syrian hamster; conditions: for pDNA transfection efficiency, in words: BHK-21, pCMVLuc, 10% FCS, N/P 1, 3, 5
Method: (§1) Lipids were freshly solubilized in ethanol at 1.24 mM concentration. Typically, 40.40 μL of 60 μM solution of DNA (pCMVLuc) in 4.5% glucose was added to the lipid (either 2.00, 5.85 or 9.75 μL deposited at the bottom of a 500 μL eppendorf tube and dried under vacuum). After gentle vortex agitation (30 sec), the complexes were allowed to stand at room temperature for 30 min before addition (10 μL, i.e. 0.2 μg DNA) into each well (triplicate). Cells were then let to grow in the incubator without further handling. Luciferase gene expression was assessed 24 h later using a commercial kit according to the manufacturer's protocol (Promega, Charbonnières, France). Cells were washed with PBS (100 μL) and lyzed with the Promega lysis buffer (20 μL). After agitation for 15 min, PBS (150 μL) was added. A 5 μL aliquot was transferred to a white microplate and luminescence was recorded for 1 sec with a luminometer (Berthold Centro LB960 XS, Thoiry, France) upon addition of the luciferin substrate (35 μL). Value for each sample is the mean of triplicate determinations (±SD).
The ability to transfect siRNA into U87Luc cells and pCMVLuc pDNA into BHK-21 was assessed for each synthetized analogue as shown in parts A and B hereabove.

[3] = system: A549, Calu-3, and NCI-H292 cell line; test: pDNA transfection in pulmonary cell lines, statements not tied to one line; type: cell-based; conditions: whatever the cell line considered, pCMVLuc, N/P 1-5
Method: as §1
The ability of compounds 1-9 to transfect plasmid DNA was assessed for the following cell lines: A549 cells (alveolar, human lung carcinoma), Calu-3 cells (bronchial, epithelial lung adenocarcinoma), and NCI-H292 cells (bronchial, human lung mucoepidermoid carcinoma). The results concerning transfection activity and LDH release for compounds 1 to 9 are shown in FIGS. 19A, 19B and 19C for cell line A549, Calu-3 and NCI-H292, respectively.

[4] = system: A549, Calu-3, and NCI-H292 cell line; test: LDH release in pulmonary cell lines, statements not tied to one line; type: cell-based; conditions: cell lines investigated, pDNA lipoplexes
Method: Lactate dehydrogenase (LDH) release was used to assess the cytotoxicity of the formulations used in the transfection experiments described as outlined. Typically, at the end of each transfection experiment, the culture medium was removed and placed in another 96-wells plate. LDH activity was measured using a commercial kit (Cytotoxicity Detection Kit Plus, Roche Applied Science) according to the manufacturer's instructions. LDH activity was expressed as the percentage of the maximal LDH release obtained after treatment of the cells with the lysis solution kit (5 μL). Less than 10% LDH release was regarded as a measure of non-significant toxicity. Value for each sample is the mean of triplicate determinations (±SD).

[5] = system: BHK-21 cells; test: LDH release assay, BHK-21 cells
[6] = Hydrolytic stability of liposomes by 31P-NMR; conditions: Table 3, liposomes
Method: For hydrolysis rate measurements using ^31P-NMR, liposomes were obtained by a solvent injection technique. […] The lipids (10 μmol) were dissolved in PrOH (200 μL) and then injected with a syringe with a flow rate of ca. 600 μL/min and a stirring speed of 400 rpm into the appropriate aqueous buffer medium (either Hepes 10 mM pH 7.4 or AcOK/AcOH 10 mM pH 4.5).
The hydrolytic stability of CPDCs/conjugates under neutral and acidic conditions was evaluated in a model experiment involving ^31P-NMR measurements. Phosphotriesters and phosphodiesters display ^31P chemical shifts differing by 5-6 ppm allowing a precise monitoring of the hydrolysis reaction. CPDCs/conjugates were formulated into liposomes using an injection technique.[47] Liposomes were prepared at pH 7.4 and pH 4.5, and incubated at 37° C. and hydrolysis was monitored by ^31P-NMR measurements.
For hydrolysis rate measurements involving ^31P-NMR spectoscopy and BET intercallation assays, liposomes were prepared by a solvent injection technique. A dry lipid film (10 μmol) was dissolved in i-PrOH (200 μL) and then injected with a syringe (flow rate: 600 μL/min) under stirring (stirring speed: 400 rpm) in the middle of the appropriate aqueous buffer medium (either Hepes 10 mM, pH 7.4 or AcOK/AcOH 10 mM, pH 4.5), at 22° C.
The cationic lipids were formulated into liposomes using an injection technique as described hereabove. Liposomes were prepared at pH 7.4 and pH 4.5, and incubated at 37° C. Periodical acquisition of ^31P-NMR spectra allowed determination of the time t, required for 50% hydrolysis (Table 3).

[7] = system: U87-Luc cells; test: siRNA transfection, luciferase gene silencing; type: cell-based, human; parameters: Percentage of residual luciferase expression, Control siRNA, N/P: 25 / Percentage of residual luciferase expression, Control siRNA, N/P: 50 / Percentage of residual luciferase expression, Control siRNA, N/P: 100: concentration or dose not given beside the values; conditions: for luciferase silencing / siRNA transfection activity, in words: U87-Luc cells, siLuc vs control siRNA, 48 h, 10% FBS
[8] = system: U87Luc cells; test: LDH release assay, U87Luc cells; type: cell-based, human
[9] = system: BHK-21 cells
[10] = system: Sheep erythrocytes; test: Erythrocyte leakage (hemolysis) assay; type: cell-based; conditions: 2 h, 37° C.
Method: Hemolysis experiments were carried out according to a procedure described elsewhere. For recovery from washing steps, sheep red blood cells were centrifuged at 400 RCF for 10 min, and washed three times with 150 mM NaCl. […] Complete hemolysis was achieved using deionized water yielding the 100% control value. The negative control was obtained by suspension of RBC in phosphate buffer alone. The experiments were performed in triplicate.

[11] = system: 16HBE cells; test: Cell mitochondrial activity (MTT assay); type: cell-based; conditions: 48 h
Method: Cells were grown in culture flasks (Becton-Dickinson) with DMEM culture medium supplemented with 10% FBS, 100 U/mL penicillin, 100 mg/mL streptomycin, 2 mM L-glutamine, and 5 mM Hepes. Culture was carried out at 37° C., in a 5% CO2 and humidified atmosphere. At confluence, cells were released with trypsin (0.5% in PBS), counted and transferred into a 96-well plate (Becton-Dickinson) at a density of 6,000 cells/well. On the next day (24 h later), culture medium was changed to fresh DMEM medium supplemented with 10% FBS before addition of lipoplexes (100 μL) prepared as described above. After a 48 h incubation period at 37° C., culture supernatant was removed, cells were carefully washed with PBS and 0.5 mg/mL MTT (1 mL) in complete culture medium was added. After a 2 h incubation period at 37° C., MTT solution was removed and DMSO (1 mL) was added to lyse cells and dissolve reduced MTT. Intensity of MTT reduction was then evaluated by measuring absorbance at 570 nm. Viability of cells treated with lipoplexes was expressed as the percentage of the absorbance measured in untreated cells. Value for each sample is the mean of triplicate determinations (±SD).

Compound: 1,2-Dioleoyl-sn-glycero-3-{1-[(dodecyloxycarbonyl)oxy]-2-methylpropyl}phosphocholine chloride [PP178]
- Particle size (nm) [1]: 721.8 ± 65.7 nm
- Zeta potential (mV) [1]: +48.5 mV
- pDNA transfection efficiency, in words [2]: more effective than control phospholipid EDOPC
- pDNA transfection activity, in words [3]: highest cell transfection levels
- LDH release / cell toxicity, in words [4]: significant LDH release
- LDH release ([5]; BHK-21, Part B pDNA lipoplexes, N/P 1, 3 and 5): 11%
- t1/2 (h), time required for 50% hydrolysis ([6]; pH 4.5, 37° C.): 498 h
- t1/2 (h), time required for 50% hydrolysis ([6]; pH 7.4, 37° C.): 497 h

Compound: 1,2-Dioleoyl-sn-glycero-3-{1-[(dodecyloxycarbonyl)oxy]ethyl}phosphocholine chloride [PP120]
- Particle size (nm) [1]: 819.3 ± 79.8 nm
- Zeta potential (mV) [1]: +62.9 mV
- pDNA transfection efficiency, in words [2]: more effective than control phospholipid EDOPC
- pDNA transfection activity, in words [3]: significant transfection activity
- LDH release / cell toxicity, in words [4]: significant LDH release
- t1/2 (h), time required for 50% hydrolysis ([6]; pH 4.5, 37° C.): 27 h
- t1/2 (h), time required for 50% hydrolysis ([6]; pH 7.4, 37° C.): 29 h

Compound: 1,2-Dioleoyl-sn-glycero-3-{4-[(dodecyloxy)-4-oxobutanoyloxy]methyl}phosphocholine chloride [PP93]
- Particle size (nm) [1]: 364.3 ± 34.6 nm
- Zeta potential (mV) [1]: −18.0 mV
- effect of helper lipid DOPE on pDNA transfection efficiency ([2]; BHK-21, lipid/DOPE mixtures, 1:1 molar ratio): unable to assist DNA transfection when mixed with DOPE
- pDNA transfection activity, in words [3]: significant transfection activity

Compound: CCCCCCCCC=CCCCCCCCC(=O)OCC(COP(=O)(OCCCCCCCCCCCC)OCC[N+](C)(C)C)OC(=O)CCCCCCCC=CCCCCCCCC (mixture of isomers) [PP514]
- Percentage of residual luciferase expression, Control siRNA, N/P: 25 ([7]; Table 8, N/P 25): 100.51%
- Percentage of residual luciferase expression, Luc-targeting siRNA, N/P: 25 ([7]; Table 8, N/P 25): 103.75%
- Percentage of residual luciferase expression, Control siRNA, N/P: 50 ([7]; Table 8, N/P 50): 98.50%
- Percentage of residual luciferase expression, Luc-targeting siRNA, N/P: 50 ([7]; Table 8, N/P 50): 101.21%
- Percentage of residual luciferase expression, Control siRNA, N/P: 100 ([7]; Table 8, N/P 100): 94.58%
- Percentage of residual luciferase expression, Luc-targeting siRNA, N/P: 100 ([7]; Table 8, N/P 100): 99.76%
- luciferase silencing / siRNA transfection activity, in words [7]: totally inefficient to transfect siRNA
- pDNA transfection efficiency, in words [2]: able to transfect DNA into cells
- Luciferase expression (RLU/well), N/P: 1 ([2]; Table 9, N/P 1): 1.49 × 10^7 RLU/well
- Luciferase expression (RLU/well), N/P: 3 ([2]; Table 9, N/P 3): 1.26 × 10^7 RLU/well
- Luciferase expression (RLU/well), N/P: 5 ([2]; Table 9, N/P 5): 2.79 × 10^7 RLU/well
- Percentage of LDH release, Lipoplex with siRNA (U87Luc), N/P: 25 ([8]; Table 10, N/P 25): −2.36%
- Percentage of LDH release, Lipoplex with siRNA (U87Luc), N/P: 50 ([8]; Table 10, N/P 50): −3.13%
- Percentage of LDH release, Lipoplex with siRNA (U87Luc), N/P: 100 ([8]; Table 10, N/P 100): −3.29%
- Percentage of LDH release, Lipoplex with pDNA (BHK-21), N/P: 1 [9]: 0.15%
- Percentage of LDH release, Lipoplex with pDNA (BHK-21), N/P: 3 [9]: 0.76%
- Percentage of LDH release, Lipoplex with pDNA (BHK-21), N/P: 5 [9]: 0.46%

Compound: CCCCCCCC/C=C\CCCCCCCC(=O)OCC(C[N+](C)(C)C)OC(=O)CCCCCCC/C=C\CCCCCCCC.[Cl-] (stereo not drawn) [DOTAP, 1,2-Dioleoyloxy-3-(N,N,N-trimethylamino)propyl chloride]
- luciferase silencing / siRNA transfection activity, in words [7]: unable to assist siRNA silencing activity

Compound: CCCCCCCCCCCCCCCC(=O)OC[C@H](COP(=O)(OCCOCCOCCOCCOCCOCCOCCOCCOCCOc1ccc(C(C)(C)CC(C)(C)C)cc1)OCC[N+](C)(C)C)OC(=O)CCCCCCCCCCCCCCC (stereo partly drawn) [PP431]
- Percentage of residual luciferase expression, Control siRNA, N/P: 25 ([7]; Table 5, N/P 25): 96.59%
- Percentage of residual luciferase expression, Luc-targeting siRNA, N/P: 25 ([7]; Table 5, N/P 25): 107.08%
- Percentage of residual luciferase expression, Control siRNA, N/P: 50 ([7]; Table 5, N/P 50): 64.76%
- Percentage of residual luciferase expression, Luc-targeting siRNA, N/P: 50 ([7]; Table 5, N/P 50): 75.27%
- Percentage of residual luciferase expression, Control siRNA, N/P: 100 ([7]; Table 5, N/P 100): 54.07%
- Percentage of residual luciferase expression, Luc-targeting siRNA, N/P: 100 ([7]; Table 5, N/P 100): 54.05%
- Luciferase expression (RLU/well), N/P: 1 ([2]; Table 6, N/P 1): 4.90 × 10^5 RLU/well
- Luciferase expression (RLU/well), N/P: 3 ([2]; Table 6, N/P 3): 6.45 × 10^6 RLU/well
- Luciferase expression (RLU/well), N/P: 5 ([2]; Table 6, N/P 5): 6.75 × 10^6 RLU/well
- Percentage of LDH release, Lipoplex with siRNA (U87Luc), N/P: 25 ([8]; Table 7, N/P 25): −1.94%
- Percentage of LDH release, Lipoplex with siRNA (U87Luc), N/P: 50 ([8]; Table 7, N/P 50): −1.83%
- Percentage of LDH release, Lipoplex with siRNA (U87Luc), N/P: 100 ([8]; Table 7, N/P 100): 4.24%
- Percentage of LDH release, Lipoplex with pDNA (BHK-21), N/P: 1 ([5]; Table 7, N/P 1): −0.09%
- Percentage of LDH release, Lipoplex with pDNA (BHK-21), N/P: 3 ([5]; Table 7, N/P 3): 5.25%
- Percentage of LDH release, Lipoplex with pDNA (BHK-21), N/P: 5 ([5]; Table 7, N/P 5): 2.38%

Compound: Triton X-100 [TX100]
- concentration achieving full membrane permeation to hemoglobin [10]: 200 µM and 150 to 200 µM
- concentration enough to decrease cell viability [11]: 20 to 40 µM
